Experimental findings from ChEMBL document CHEMBL1201862, “PubChem BioAssay data set” (2004) are described below.

The source made the active and inactive calls. A value given as a limit tells only on which side of the number the result lay.

Experiment [1] addresses T1, Endoribonuclease toxin MazF (Escherichia coli K-12, UniProt P0AE70).
T1 sequence (P0AE70 whole entry): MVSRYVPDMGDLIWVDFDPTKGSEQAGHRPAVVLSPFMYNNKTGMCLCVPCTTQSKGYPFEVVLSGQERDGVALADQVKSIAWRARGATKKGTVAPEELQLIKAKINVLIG
Briefly: fluorescent RNA oligo signal without MazF, dose response, counter-screen for MazEF activator project, biochemical, fluorescence, single-stranded RNase substrate (AID 588502). Type of experiment: functional. On the technique in general: A counterscreen serves to expose hits that act by an unwanted route or on another target.

Experiment [2] concerns the target T2, SUMO-activating enzyme (Homo sapiens, UniProt Q9UBT2). Briefly: inhibitors of in vitro SUMOylation cascade, primary screen, biochemical, HTRF, uHTS (AID 2006). Type of experiment: protein-complex assay. (Time-resolved FRET reads energy transfer from a long-lived donor to a nearby acceptor.)
For experiment [3], the target named is T2, SUMO-activating enzyme. Briefly: SUMOylation inhibitor hit validation, confirmation, SUMOylation inhibitor project, biochemical, AlphaScreen (AID 2018). It is filed as functional. Background: Alpha assays give light when donor and acceptor beads are brought close together.
For experiment [4], the target named is T1, Endoribonuclease toxin MazF. Briefly: MazF toxin RNase activators, dose response, biochemical, fluorescence, single-stranded RNA substrate, uHTS hits (AID 588481). Type of experiment: functional.
In another experiment the target is X-box-binding protein 1 (Homo sapiens, UniProt P17861). Type of experiment: functional, Cricetulus griseus.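 Also: confirmatory dose-response counter-screen serving a CHOP assay.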
Experiment [5] deals with T3, Epstein-Barr nuclear antigen 1 (Epstein-Barr virus (strain B95-8) (HHV-4) (Human herpesvirus 4), UniProt P03211).
T3 sequence (P03211 whole entry): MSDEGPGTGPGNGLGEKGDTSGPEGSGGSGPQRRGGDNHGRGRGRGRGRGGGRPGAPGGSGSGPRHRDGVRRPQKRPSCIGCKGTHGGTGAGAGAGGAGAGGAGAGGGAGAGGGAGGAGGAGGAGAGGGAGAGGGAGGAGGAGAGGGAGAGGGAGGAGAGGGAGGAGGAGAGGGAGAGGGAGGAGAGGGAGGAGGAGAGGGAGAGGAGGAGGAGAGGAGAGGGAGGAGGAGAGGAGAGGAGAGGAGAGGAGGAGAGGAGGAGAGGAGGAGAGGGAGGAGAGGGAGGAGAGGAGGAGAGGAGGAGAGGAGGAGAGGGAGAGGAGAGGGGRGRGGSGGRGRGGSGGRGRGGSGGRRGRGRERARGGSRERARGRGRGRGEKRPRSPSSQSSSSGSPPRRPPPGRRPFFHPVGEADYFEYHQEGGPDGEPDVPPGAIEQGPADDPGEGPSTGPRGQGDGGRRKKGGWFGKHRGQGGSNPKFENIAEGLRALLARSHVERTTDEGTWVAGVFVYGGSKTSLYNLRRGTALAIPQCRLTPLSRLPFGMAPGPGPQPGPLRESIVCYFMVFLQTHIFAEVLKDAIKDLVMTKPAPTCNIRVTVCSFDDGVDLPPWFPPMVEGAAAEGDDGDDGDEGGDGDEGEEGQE
Briefly: EBNA-1 inhibitors, dose response, biochemical, fluorescence polarization, 1536-well (AID 2381).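 Also: fluorescence polarization of a Cy5 DNA probe bound by EBNA-1 protein.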 More on the design: species or system human gammaherpesvirus 4.

For experiment [6], the target named is T4, Lytic switch protein BZLF1 (Epstein-Barr virus (strain B95-8) (HHV-4) (Human herpesvirus 4), UniProt P03206).
T4 sequence (P03206 whole entry): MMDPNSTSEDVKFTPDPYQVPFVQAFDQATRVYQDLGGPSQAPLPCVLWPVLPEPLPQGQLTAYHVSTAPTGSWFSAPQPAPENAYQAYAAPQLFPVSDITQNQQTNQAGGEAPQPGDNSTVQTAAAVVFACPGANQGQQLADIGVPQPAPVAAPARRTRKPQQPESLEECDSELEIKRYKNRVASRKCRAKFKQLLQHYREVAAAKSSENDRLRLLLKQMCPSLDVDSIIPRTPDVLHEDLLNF
Briefly: EBV ZTA inhibitors, dose response, counter-screen for EBNA-1 inhibitor project, biochemical, fluorescence polarization, Epstein-Barr virus, 1536-well (AID 2377).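 Also: fluorescence polarization of Cy5-labelled ZRE DNA probe bound by purified Zta.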 More on the design: species or system human gammaherpesvirus 4.

The nature of experiment [7]: cytotoxicity in HEK-293T cells, dose response, cytotoxicity control for BCR NF-kB inhibitor project, luminescence, B-cell screen hits (AID 489021).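 Also: HEK-293T cells carrying an NF-kB luciferase reporter; cells exposed to compound for about 14 hours before viability readout.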 It is filed as functional, cell-based.
A short description of experiment [8]: control 3'UTR Renilla luciferase suppression, dose response, counter-screen for Shn3 inhibitor project, cell-based, Clone20-Shn3RL, cherry-picked (AID 624133). It is filed as functional.
The target in the next experiment is T5, Galanin receptor type 3 (Homo sapiens, UniProt O60755).
T5 sequence (O60755 whole entry): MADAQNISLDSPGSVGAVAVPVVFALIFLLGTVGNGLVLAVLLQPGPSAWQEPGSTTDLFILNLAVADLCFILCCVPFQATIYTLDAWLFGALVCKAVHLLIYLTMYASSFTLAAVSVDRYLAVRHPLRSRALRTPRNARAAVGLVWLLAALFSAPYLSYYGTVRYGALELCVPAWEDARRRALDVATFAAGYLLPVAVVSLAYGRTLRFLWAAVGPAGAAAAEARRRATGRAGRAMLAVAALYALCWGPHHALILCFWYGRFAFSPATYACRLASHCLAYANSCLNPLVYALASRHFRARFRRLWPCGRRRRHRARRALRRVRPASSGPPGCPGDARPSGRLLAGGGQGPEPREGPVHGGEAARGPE
Briefly: Fluorescence-based cell-based primary high throughput dose response assay to identify antagonists of the Galanin Receptor 3 (GalR3). Type of experiment: functional.

The next experiment can be described thus: cells. Type of experiment: functional, cell-based. Particulars: HEK-CNG.
Experiment [9] in a line: HepG2 cell cytotoxicity, dose response, cytotoxicity control for Shn3 inhibitor project, CellTiter-Glo, cherry-picked (AID 624134). Type of experiment: functional, cell-based.
The next experiment concerns INS1. Briefly: beta cell apoptosis inhibitors, cytokine rescue, dose response, luminescence, retest (AID 449756).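 Also: cell death triggered by IL-1 beta plus TNF-alpha plus IFN-gamma mixture; protective hits raise ATP signal compared with cytokine alone wells.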 Type of experiment: functional, cell-based. Conditions: Rattus norvegicus.
Experiment [10] in a line: Shn3 3'UTR reporter inhibitors, dose response, cell-based, Clone20 osteoblasts, firefly luciferase, cherry-picked (AID 624132).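 Also: firefly luciferase luminescence from reporter carrying the Shn3 3'UTR in osteoblasts.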 It is filed as functional.
The target in a further experiment is Beta-galactosidase (Escherichia coli, UniProt Q8VNN2). Type of experiment: functional.
Sequence of Beta-galactosidase (Q8VNN2 whole entry): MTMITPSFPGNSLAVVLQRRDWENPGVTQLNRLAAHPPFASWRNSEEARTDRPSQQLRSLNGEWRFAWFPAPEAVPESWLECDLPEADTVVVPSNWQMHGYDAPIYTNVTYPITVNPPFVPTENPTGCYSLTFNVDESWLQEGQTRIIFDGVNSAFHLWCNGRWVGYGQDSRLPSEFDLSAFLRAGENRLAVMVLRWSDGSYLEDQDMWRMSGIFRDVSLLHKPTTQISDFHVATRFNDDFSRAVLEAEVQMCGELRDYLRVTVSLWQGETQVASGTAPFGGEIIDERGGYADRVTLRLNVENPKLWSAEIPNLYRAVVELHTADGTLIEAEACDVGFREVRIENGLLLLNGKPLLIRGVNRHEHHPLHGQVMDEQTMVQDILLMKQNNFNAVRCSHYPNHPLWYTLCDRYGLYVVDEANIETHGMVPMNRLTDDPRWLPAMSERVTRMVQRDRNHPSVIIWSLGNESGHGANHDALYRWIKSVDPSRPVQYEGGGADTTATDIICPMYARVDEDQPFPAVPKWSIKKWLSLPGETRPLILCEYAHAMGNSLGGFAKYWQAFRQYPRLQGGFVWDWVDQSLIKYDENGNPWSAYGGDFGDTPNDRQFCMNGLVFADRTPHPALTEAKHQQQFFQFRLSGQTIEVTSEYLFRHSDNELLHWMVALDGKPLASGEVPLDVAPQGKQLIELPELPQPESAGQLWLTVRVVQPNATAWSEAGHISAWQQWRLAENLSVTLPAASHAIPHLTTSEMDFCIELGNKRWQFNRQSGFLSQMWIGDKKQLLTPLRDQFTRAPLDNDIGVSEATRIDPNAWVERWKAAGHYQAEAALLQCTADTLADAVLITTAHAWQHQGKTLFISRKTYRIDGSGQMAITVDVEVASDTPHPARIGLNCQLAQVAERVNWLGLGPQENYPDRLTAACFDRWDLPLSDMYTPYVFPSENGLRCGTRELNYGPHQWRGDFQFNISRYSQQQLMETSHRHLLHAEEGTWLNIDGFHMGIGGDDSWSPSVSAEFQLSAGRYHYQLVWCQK

T2 sequence (Q9UBE0 whole entry): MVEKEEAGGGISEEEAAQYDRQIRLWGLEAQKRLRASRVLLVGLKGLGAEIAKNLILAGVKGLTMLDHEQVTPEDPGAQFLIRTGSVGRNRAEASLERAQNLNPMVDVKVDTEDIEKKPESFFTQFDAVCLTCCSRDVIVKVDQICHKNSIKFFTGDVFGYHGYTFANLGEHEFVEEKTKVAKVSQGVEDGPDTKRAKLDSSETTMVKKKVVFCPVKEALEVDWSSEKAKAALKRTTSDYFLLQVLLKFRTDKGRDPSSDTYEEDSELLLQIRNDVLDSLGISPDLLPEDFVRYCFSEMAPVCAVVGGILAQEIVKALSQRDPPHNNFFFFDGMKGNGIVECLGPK
T2 sequence (Q9UBT2 whole entry): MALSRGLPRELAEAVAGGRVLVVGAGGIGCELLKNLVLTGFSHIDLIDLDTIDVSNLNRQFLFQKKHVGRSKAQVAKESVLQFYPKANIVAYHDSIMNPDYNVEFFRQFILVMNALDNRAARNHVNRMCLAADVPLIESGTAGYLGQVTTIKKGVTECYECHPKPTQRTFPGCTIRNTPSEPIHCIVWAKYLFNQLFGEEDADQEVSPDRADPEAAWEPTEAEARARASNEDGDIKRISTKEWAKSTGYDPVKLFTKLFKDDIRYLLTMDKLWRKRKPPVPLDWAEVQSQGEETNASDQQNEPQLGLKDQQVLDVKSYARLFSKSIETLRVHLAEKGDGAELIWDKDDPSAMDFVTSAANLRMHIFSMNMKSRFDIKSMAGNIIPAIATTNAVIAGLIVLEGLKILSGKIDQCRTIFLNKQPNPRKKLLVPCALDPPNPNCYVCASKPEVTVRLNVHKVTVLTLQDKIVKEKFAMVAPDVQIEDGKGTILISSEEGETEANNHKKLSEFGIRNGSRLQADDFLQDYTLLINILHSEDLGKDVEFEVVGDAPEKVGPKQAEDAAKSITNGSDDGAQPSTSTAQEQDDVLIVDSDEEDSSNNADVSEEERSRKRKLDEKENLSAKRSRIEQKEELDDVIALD
Sequence of X-box-binding protein 1 (P17861 whole entry): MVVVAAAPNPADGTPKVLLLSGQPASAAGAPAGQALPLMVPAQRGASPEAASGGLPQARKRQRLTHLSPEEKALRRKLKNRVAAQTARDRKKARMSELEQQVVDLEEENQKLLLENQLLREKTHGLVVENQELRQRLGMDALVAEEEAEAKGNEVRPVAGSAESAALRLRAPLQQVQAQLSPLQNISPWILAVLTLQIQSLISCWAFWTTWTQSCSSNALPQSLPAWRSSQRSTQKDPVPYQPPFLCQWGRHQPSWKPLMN

As usually defined, the EC50 is the concentration needed to bring the measured effect to its halfway point. A word on the IC50: it is the midpoint of a concentration-inhibition curve. Regarding `O=C1NC(=O)C(=Cc2c[nH]c3ccc(OCc4ccccc4)cc23)C(=O)N1`, the EC50 in experiment [1] and in [4] was > 99 µM (inactive) each time. Further, the IC50 on SUMO-activating enzyme [2] was 11 µM (active); on SUMO-activating enzyme [3], 20.9 µM (active).
Take `COc1ccccc1C(=O)Oc1ccc(C(C)C)cc1`: the “Absolute IC50 (XBP1)” value on X-box-binding protein 1 came to 10 µM.
`CCOC(=O)c1c(C)[nH]c(C(=O)COC(=O)c2[nH]c(C)c(C(C)=O)c2C)c1C`: the “Absolute IC50 (XBP1)” value on X-box-binding protein 1 was 10 µM.
Consider `Cn1c(=O)n(C)c2cc(/C=C3/NC(=O)N(Cc4ccccc4)C3=O)ccc21`, for which the half-inhibitory concentration (IC50) in experiment [5] was 11.2 µM (not active); in experiment [6] it was > 111 µM (not active); in experiment [7] it was > 80 µM (inactive).
Usually AC50 stands for the concentration giving half of the maximal activity seen. For `CC(C)(C)c1ccc(-n2ncc3c2CCCC3NC(=O)C2(C(N)=O)CC2)cc1` (centres undefined), the AC50 was 13.4 µM (active) in experiment [8], 807 nM (active) in [9], 4.11 µM (active) with INS1 and 589 nM (active) in experiment [10]. The results for the IC50 (on Galanin receptor type 3; in experiment [7]) were 408 nM (active) and > 80 µM (inactive), respectively. For the same compound, in “cells”, the EC50 is > 29.9 µM (inactive).
Take `O=[N+]([O-])c1ccccc1/C=C/C=N/n1c(S)nnc1-c1cc(-c2ccccc2)[nH]n1`: the IC50 on SUMO-activating enzyme [2] was 26.8 µM (active); at SUMO-activating enzyme [3] it was 10.3 µM (active).
For `C=C1CC[C@@]2(O)[C@H]3Cc4ccc(O)c5c4[C@@]2(CCN3CC2CC2)[C@H]1O5`, the EC50 on Beta-galactosidase is > 31.5 µM (inactive).
